This passage reports LC50 results from ChEMBL document CHEMBL1146908, “Synthesis of 16-mercaptohexadecylphosphocholine, a miltefosine analog with leishmanicidal activity” (2006).

Holding throughout (assay type): functional
What all share (details): read-out: LD50 (the source's name)

Test [1] has as its system Leishmania mexicana. Kind of test: Antileishmanial activity against miltefosine-resistant Leishmania pifanoi axenic amastigotes by MTT assay. In general terms: Tetrazolium assays rely on reduction of a dye to a coloured formazan, in cell work by metabolically active cells.
Test [2] has as its system Leishmania donovani. In words: Antileishmanial activity against miltefosine-resistant Leishmania donovani promastigotes by MTT assay.
The subject of test [3] is Leishmania donovani. Kind of test: Antileishmanial activity against Leishmania donovani promastigotes by MTT assay.
The test system of test [4] is Leishmania mexicana. In words: Antileishmanial activity against Leishmania pifanoi axenic amastigotes by MTT assay.

Molecules are shown by their SMILES. Some results are limits rather than exact numbers.

For `C[N+](C)(C)CCOP(=O)([O-])OCCCCCCCCCCCCCCCCS`, the LC50 with Leishmania mexicana [1] is over 50 µM; in the test with Leishmania donovani [2], over 50 µM; in the test with Leishmania donovani [3] it was 5.1 µM; with Leishmania mexicana [4], 5.5 µM.
For `CCCCCCCCCCCCCCCCOP(=O)([O-])OCC[N+](C)(C)C` [MILTEFOSINE], the LC50 in the test on Leishmania mexicana [1] was over 50 µM; in the test with Leishmania donovani [2], over 50 µM; with Leishmania donovani [3], 5.3 µM; in the test with Leishmania mexicana [4] it was 5 µM.
